Data published in patent US20200399222A1, “PICOLINAMIDES AS FUNGICIDES” (Dow AgroSciences LLC, priority 2018, published 2020).
Read-outs that look alike come from different tables or passages of the source.

Tests used:
Assay type in all cases: in vivo
[1] = system: Zymoseptoria tritici; assay: Leaf blotch of wheat (SEPTTR) disease control on wheat seedlings; conditions: for pest or weed control at 121.5 g/ha: Low volume application; for pest or weed control at 100 ppm: High volume application
[2] = system: Puccinia triticina; assay: Wheat brown rust (PUCCRT) disease control on wheat seedlings; conditions: for pest or weed control at 121.5 g/ha: Low volume application; for pest or weed control at 100 ppm: High volume application
Summary of the method: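 Yuma wheat seedlings (first leaf emerged) sprayed to run-off with compound in acetone plus nine volumes water containing 110 ppm Triton X-100, or track-sprayed as EC formulations with 0.1% Trycol 5941. Rust spores inoculated before or after treatment; overnight dark dew, 22 °C, 100% RH, then greenhouse at 24 °C.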

[3] = system: Phakopsora pachyrhizi; assay: Asian soybean rust (PHAKPA) disease control on soybean seedlings; conditions: Phakopsora pachyrhizi, High volume application at 25 ppm
Summary of the method: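 Compounds in acetone diluted with nine volumes of water containing 0.011% Tween 20, sprayed to run-off on two-week-old Williams 82 soybean seedlings; inoculation 3 days before or 1 day after treatment. Plants held 24 h in dark dew room at 22° C, 100% RH, then at 23° C; disease severity scored on sprayed leaves.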

[4] = 24 h, 1 Day Protectant, read-out: SEPTTR disease control rating, 1DP
[5] = 72 h, 3 Day Curative, read-out: SEPTTR disease control rating, 3DC
[6] = 24 h, 1 Day Protectant, read-out: PUCCRT disease control rating, 1DP
[7] = 72 h, 3 Day Curative, read-out: PUCCRT disease control rating, 3DC
[8] = 24 h, 1 day protectant, read-out: PHAKPA 1DP (1 Day Protectant) disease control
[9] = 72 h, 3 day curative, read-out: PHAKPA 3DC (3 Day Curative) disease control

| Compound | pest or weed control at 121.5 g/ha [1, 4] | pest or weed control at 121.5 g/ha [1, 5] | pest or weed control at 121.5 g/ha [2, 6] | pest or weed control at 121.5 g/ha [2, 7] | pest or weed control at 25 ppm [3, 8] | pest or weed control at 25 ppm [3, 9] | pest or weed control at 100 ppm [1, 4] | pest or weed control at 100 ppm [1, 5] | pest or weed control at 100 ppm [2, 6] | pest or weed control at 100 ppm [2, 7] |
| --- | --- | --- | --- | --- | --- | --- | --- | --- | --- | --- |
| COc1ccnc(C(=O)N[C@@H](C)C(=O)O[C@@H](C)[C@H](C)c2ccccc2C)c1OCOC(C)=O [Example 231] | < 80% | < 80% | > 80% | < 80% | < 80% | < 0% | – | – | – | – |
| COc1cc[n+]([O-])c(C(=O)N[C@@H](C)C(=O)O[C@@H](C)[C@@H](C)C2CCCC2)c1O [Example 275] | < 0% | < 0% | < 80% | < 0% | < 80% | < 80% | – | – | – | – |
| COc1cc[n+]([O-])c(C(=O)N[C@@H](C)C(=O)O[C@@H](C)[C@@H](C)c2ccccc2)c1O [Example 276] | < 80% | < 80% | < 80% | < 80% | < 0% | < 80% | < 80% | < 80% | > 80% | < 80% |
| COc1ccccc1[C@H](C)[C@H](C)OC(=O)[C@H](C)NC(=O)c1nccc(OC)c1OC(C)=O [Example 257] | < 80% | < 80% | < 80% | < 80% | < 80% | < 0% | – | – | – | – |
| COc1ccnc(C(=O)N[C@@H](C)C(=O)O[C@H](C)[C@H](C)c2c(C)cccc2C)c1OC(C)=O [Example 253] | < 80% | < 80% | > 80% | < 80% | > 80% | > 80% | – | – | – | – |
| COc1ccnc(C(=S)N[C@@H](C)C(=O)O[C@@H](C)[C@@H](C)C2CCCC2)c1OC(C)=O [Example 272] | < 80% | < 80% | < 80% | < 80% | > 80% | < 80% | – | – | – | – |
| COc1ccnc(C(=O)N[C@@H](C)C(=O)O[C@H](C)[C@H](C)C2CCCC2)c1OC(=O)C(C)C [Example 241] | < 80% | < 0% | < 0% | < 0% | < 0% | < 0% | – | – | – | – |
| COc1ccnc(C(=O)N[C@@H](C)C(=O)OC(C)C(C)c2c(C)cc(F)cc2C)c1OC(=O)C(C)C (stereo partly shown) [Example 244] | > 80% | > 80% | > 80% | < 80% | > 80% | > 80% | – | – | – | – |
| COc1ccnc(C(=O)N[C@@H](C)C(=O)O[C@@H](C)[C@@H](C)c2ccc(F)cc2C)c1O [Example 128] | – | – | – | – | – | > 80% | > 80% | > 80% | > 80% | > 80% |
| COc1ccnc(C(=S)N[C@@H](C)C(=O)O[C@@H](C)[C@@H](C)c2ccccc2C(F)(F)F)c1OC(C)=O [Example 270] | < 80% | < 80% | < 80% | < 80% | > 80% | < 80% | – | – | – | – |
| COc1cc(F)ccc1[C@@H](C)[C@@H](C)OC(=O)[C@H](C)NC(=O)c1c(O)c(OC)cc[n+]1[O-] [Example 277] | < 80% | < 80% | < 0% | < 80% | < 80% | < 80% | < 80% | < 80% | < 80% | < 0% |
| COc1cc[n+]([O-])c(C(=O)N[C@@H](C)C(=O)O[C@@H](C)[C@@H](C)c2ccccc2C(F)(F)F)c1O [Example 273] | < 80% | < 80% | < 80% | < 80% | < 80% | < 80% | – | – | – | – |
| COc1ccnc(C(=O)N[C@@H](C)C(=O)O[C@H](C)[C@H](C)c2ccccc2C(F)(F)F)c1OC(C)=O [Example 250] | < 80% | < 80% | < 0% | < 80% | < 80% | < 80% | – | – | – | – |
| COc1cc(F)ccc1[C@@H](C)[C@@H](C)OC(=O)[C@H](C)NC(=O)c1nccc(OC)c1OC(C)=O [Example 260] | < 80% | < 0% | < 0% | < 0% | > 80% | < 80% | < 80% | < 80% | > 80% | < 80% |
| COc1ccnc2c(=O)n([C@@H](C)C(=O)O[C@@H](C)[C@@H](C)c3ccccc3)c(=O)oc12 [Example 261] | < 80% | < 0% | < 80% | < 0% | < 80% | < 80% | – | – | – | – |
| COc1ccnc(C(=O)N[C@@H](C)C(=O)O[C@H](C)[C@H](C)C2CCCC2)c1OC(C)=O [Example 252] | < 0% | < 80% | < 0% | < 80% | < 80% | < 80% | – | – | – | – |
| COc1cc[n+]([O-])c(C(=O)N[C@@H](C)C(=O)O[C@@H](C)[C@@H](C)c2ccc(F)cc2C(F)(F)F)c1O [Example 274] | < 80% | < 80% | < 80% | < 80% | < 80% | < 80% | – | – | – | – |
| COc1ccnc(C(=O)N[C@@H](C)C(=O)O[C@H](C)[C@H](C)c2ccc(F)cc2C(F)(F)F)c1OC(=O)C(C)C [Example 240] | < 80% | < 80% | < 0% | < 0% | < 80% | < 80% | – | – | – | – |
| COc1ccnc(C(=O)N[C@@H](C)C(=O)O[C@@H](C)[C@@H](C)c2ccc(C)s2)c1OC(C)=O [Example 259] | < 80% | < 0% | < 80% | < 0% | < 80% | < 80% | < 80% | < 0% | > 80% | > 80% |
| COc1ccnc(C(=O)N[C@@H](C)C(=O)O[C@@H](C)[C@@H](C)c2ccccc2)c1OC(C)=O [Example 258] | < 80% | > 80% | < 80% | > 80% | > 80% | > 80% | < 80% | < 80% | > 80% | > 80% |
| COc1ccnc(C(=O)N[C@@H](C)C(=O)O[C@@H](C)[C@@H](C)c2c(C)cc(F)cc2C)c1OC(=O)C(C)C [Example 238] | > 80% | > 80% | > 80% | < 80% | > 80% | > 80% | – | – | – | – |
| COc1ccnc(C(=O)N[C@@H](C)C(=O)O[C@H](C)[C@H](C)c2c(C)cc(F)cc2C)c1OC(C)=O [Example 254] | > 80% | > 80% | > 80% | > 80% | > 80% | > 80% | – | – | – | – |
| COc1ccnc(C(=O)N[C@@H](C)C(=O)O[C@@H](C)[C@@H](C)c2ccc(F)cc2C(F)(F)F)c1OC(C)=O [Example 246] | > 80% | > 80% | > 80% | > 80% | > 80% | > 80% | – | – | – | – |
